In US9511134B2, “Inducing immune responses to influenza virus using polypeptide and nucleic acid compositions” (priority 2006, dated 2016):
“And” between values parts separate entries of the source, which are not always exact repeats. Equal values may be shown once. Read-outs that look alike come from different tables or passages of the source. Where no end group is shown, it is not given here.

Experiments:
DRB1*1302 = DRB1*1302 (Homo sapiens, UniProt P01903+P01911, A100E/A169T/K41T/L162R/M171V/P40S/Q125H/Q178H/Q39Y/Q99D/R42S/S66N/T262R/V115G/W38E/Y61H); assay: biochemical; assay type: binding; settings: read-out: IC50 nM to purified HLA DRB1*1302
DRB1*1302, sequence (P01903 26-254 limits assumed, other chains not shown): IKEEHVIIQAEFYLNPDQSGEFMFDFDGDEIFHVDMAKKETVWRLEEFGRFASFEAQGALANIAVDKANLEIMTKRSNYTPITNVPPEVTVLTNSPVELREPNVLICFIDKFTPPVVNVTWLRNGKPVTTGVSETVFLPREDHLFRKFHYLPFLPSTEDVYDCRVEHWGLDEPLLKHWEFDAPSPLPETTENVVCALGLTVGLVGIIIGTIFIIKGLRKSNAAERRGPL

DRB1*0401 = molecular target: T1, DRB1*0401 (Homo sapiens, UniProt P01903+P01911, A100K/A169T/F76Y/I96L/K127E/L162R/M171V/N62H/P40V/Q125Y/R42H/S133A/S149N/S66Y/V115G/V209L/W38E); assay: biochemical; assay type: binding; settings: read-out: IC50 nM to purified HLA DRB1*0401
T1 construct: made in house; host or cells: EBV-transformed homozygous human B cell lines, transfected fibroblasts or single-allele 721.221 transfectants

DRB1*0405 = DRB1*0405 (Homo sapiens, UniProt P01903+P01911, A100R/A169T/D86S/F76Y/I96L/K127E/L162R/M171V/N62H/P40V/Q125Y/R42H/S133A/S149N/S66Y/V115G/V209L/W38E); assay: biochemical; assay type: binding; settings: read-out: IC50 nM to purified HLA DRB1*0405
DRB1*0301 = molecular target: T2, DRB1*0301 (Homo sapiens, UniProt P01903+P01911, A100K/A102G/A103R/A169T/F55Y/I96L/K41T/L162R/M171V/P40S/Q125H/Q178H/Q39Y/R42S/S66N/T106N/T262R/W38E/Y61H); assay: biochemical; assay type: binding
T2 construct: made in house; host or cells: EBV-transformed homozygous human B cell lines, transfected fibroblasts or single-allele 721.221 transfectants
T2 sequence (P01903 26-254, other chains not shown): as the sequence (P01903 26-254 limits assumed, other chains not shown) above

DRB1*0404 = DRB1*0404 (Homo sapiens, UniProt P01903+P01911, A100R/A169T/F76Y/I96L/K127E/L162R/M171V/N62H/P40V/Q125Y/R42H/S133A/S149N/S66Y/V209L/W38E); assay: biochemical; assay type: binding; settings: IC50 nM to purified HLA DRB1*0404
DRB1*0101 = molecular target: T3, DRB1*0101 (Homo sapiens, UniProt P01903+P01911, A100R/D57E/F55L/F60I/F76Y/I96L/L162R/M171V/P40L/Q125E/R42F/V115G/Y59C); assay: biochemical; assay type: binding
T3 construct: made in house; host or cells: EBV-transformed homozygous human B cell lines, transfected fibroblasts or single-allele 721.221 transfectants

CD4+ PBMC = assay type: cell-based, human; settings: IFNγ ELISPOT, PBMC rested five days, CD8-depleted
[1] = IC50 nM to purified HLA DRB1*0101

| Compound | IC50 (DRB1*1302) | IC50 (DRB1*0401) | IC50 (DRB1*0405) | IC50 (DRB1*0301) | IC50 (DRB1*0404) | IC50 (DRB1*0101; [1]) | IC50 (DRB1*0401; Table 4) | IC50 (DRB1*0101; IC50 nM to purified HLA DRB1*0101, Table 4) | Human influenza epitope-specific immune response, donor 3501 (CD4+ PBMC) |
| --- | --- | --- | --- | --- | --- | --- | --- | --- | --- |
| CC[C@H](C)[C@H](NC(=O)[C@H](CO)NC(=O)[C@@H](NC(=O)[C@@H](NC(=O)[C@@H](NC(=O)[C@@H](N)CCCNC(=N)N)C(C)C)C(C)C)C(C)C)C(=O)N[C@@H](CC(=O)O)C(=O)N[C@@H](CCCNC(=N)N)C(=O)N[C@@H](Cc1ccccc1)C(=O)N[C@@H](CC(C)C)C(=O)N[C@@H](CCCNC(=N)N)C(=O)N[C@H](C(=O)N[C@@H](CCCNC(=N)N)C(=O)N[C@@H](CC(=O)O)C(=O)N[C@@H](CCC(N)=O)C(=O)O)C(C)C [Flu.PB2.496] | 8.1 nM | 111 nM | 2050 nM | 67 nM | 400 nM |  |  |  |  |
| CC[C@H](C)[C@H](NC(=O)[C@H](CC(C)C)NC(=O)[C@H](CS)NC(=O)[C@H](CCC(=O)O)NC(=O)[C@@H](N)CCC(=O)O)C(=O)N[C@@H](CC(N)=O)C(=O)N[C@@H](CC(=O)O)C(=O)N1CCC[C@H]1C(=O)N[C@@H](Cc1c[nH]c2ccccc12)C(=O)N[C@H](C(=O)N[C@@H](CC(C)C)C(=O)N[C@@H](CC(C)C)C(=O)N[C@@H](CC(N)=O)C(=O)N[C@@H](C)C(=O)N[C@@H](CO)C(=O)O)C(C)C [Flu.PA.694] |  |  | 15000 nM | 618 nM | 183 nM | 34 nM |  |  |  |
| CC[C@H](C)[C@H](NC(=O)CNC(=O)[C@H](CCCNC(=N)N)NC(=O)[C@@H](N)CCC(N)=O)C(=O)N[C@@H](CC(C)C)C(=O)N[C@@H](CCC(=O)O)C(=O)N[C@@H](CC(=O)O)C(=O)N[C@@H](CCC(=O)O)C(=O)N[C@@H](CCC(N)=O)C(=O)N[C@@H](CCSC)C(=O)N[C@@H](Cc1ccc(O)cc1)C(=O)N[C@@H](CCC(N)=O)C(=O)N[C@@H](CCCCN)C(=O)N[C@@H](CS)C(=O)N[C@@H](CS)C(=O)O [Flu.PB1.682] |  | 2560 nM | 700 nM | 34 nM | 3270 nM | 433 nM |  |  |  |
| CC(C)[C@H](NC(=O)[C@H](CCC(=O)O)NC(=O)[C@H](C)NC(=O)[C@@H](NC(=O)[C@H](Cc1ccccc1)NC(=O)[C@H](Cc1ccc(O)cc1)NC(=O)[C@H](CC(N)=O)NC(=O)[C@@H](N)CCCNC(=N)N)[C@@H](C)O)C(=O)N[C@@H](CO)C(=O)N[C@@H](Cc1c[nH]cn1)C(=O)N[C@@H](CS)C(=O)N[C@@H](CCCNC(=N)N)C(=O)N[C@@H](C)C(=O)N[C@H](C(=O)N[C@@H](CCC(=O)O)C(=O)O)[C@@H](C)O [Flu.PA.446] |  | 45 nM | 5720 nM | 883 nM | 7600 nM | 627 nM |  |  |  |
| GSYFFGDNAEEYDN [Flu.NP.488] |  | 1950 nM | 65 nM |  |  |  |  |  |  |
| CC[C@H](C)[C@H](NC(=O)CNC(=O)[C@@H](N)CCCNC(=N)N)C(=O)N[C@@H](CC(C)C)C(=O)N[C@@H](CCC(=O)O)C(=O)N[C@@H](CC(=O)O)C(=O)N[C@@H](CCC(=O)O)C(=O)N[C@@H](CCC(N)=O)C(=O)N[C@@H](CCSC)C(=O)N[C@@H](Cc1ccc(O)cc1)C(=O)N[C@@H](CCC(N)=O)C(=O)N[C@@H](CCCCN)C(=O)N[C@@H](CS)C(=O)N[C@@H](CS)C(=O)N[C@@H](CC(N)=O)C(=O)O [Flu.PB1.683] | 18000 nM | 5740 nM | 3280 nM | 43 nM |  |  |  |  |  |
| MVAYMLERELVRKTR [Flu.PB2.205] | 2080 nM | 166 nM | 5540 nM |  |  | 97 nM |  |  |  |
| CC[C@H](C)[C@H](NC(=O)[C@H](CCC(=O)O)NC(=O)[C@H](CCC(N)=O)NC(=O)[C@H](CCC(=O)O)NC(=O)[C@@H](NC(=O)[C@H](CCC(=O)O)NC(=O)[C@H](CC(C)C)NC(=O)[C@H](CC(C)C)NC(=O)[C@H](CC(C)C)NC(=O)[C@@H](N)CCC(N)=O)C(C)C)C(=O)N[C@@H](CCCNC(=N)N)C(=O)N[C@H](C(=O)N[C@@H](Cc1ccccc1)C(=O)N[C@@H](CO)C(=O)N[C@@H](Cc1ccccc1)C(=O)O)[C@@H](C)O [Flu.NS2.180] |  | 13900 nM | 5140 nM | 792 nM | 1600 nM | 11900 nM |  |  |  |
| CC[C@H](C)[C@H](NC(=O)[C@H](C)NC(=O)CNC(=O)[C@@H](N)CCC(=O)O)C(=O)N[C@H](C(=O)NCC(=O)N[C@@H](CCC(=O)O)C(=O)N[C@H](C(=O)N[C@@H](CO)C(=O)N1CCC[C@H]1C(=O)N[C@@H](CC(C)C)C(=O)N1CCC[C@H]1C(=O)N[C@@H](CO)C(=O)N[C@@H](CC(C)C)C(=O)N1CCC[C@H]1C(=O)O)[C@@H](C)CC)C(C)C [Flu.NS1.156] |  | 48 nM and 27 nM |  |  | 13 nM | 85 nM | 48 nM | 85 nM | Positive (Donors were considered positive for a peptide if the number of spots was over 3 times background as determined by responses to irrelevant peptides (non influenza)) |
| CC[C@H](C)[C@H](NC(=O)[C@H](CCSC)NC(=O)[C@@H]1CCCN1C(=O)[C@H](CC(N)=O)NC(=O)[C@@H](N)Cc1ccccc1)C(=O)N[C@H](C(=O)N[C@@H](CCC(=O)O)C(=O)N[C@@H](CC(C)C)C(=O)N[C@@H](C)C(=O)N[C@@H](CCC(=O)O)C(=O)N[C@@H](CCCCN)C(=O)N[C@H](C(=O)N[C@@H](CCSC)C(=O)N[C@@H](CCCCN)C(=O)N[C@@H](CCC(=O)O)C(=O)O)[C@@H](C)O)C(C)C [Flu.PA.12] | 1250 nM | 29 nM | 1240 nM | 744 nM | 610 nM | 48 nM |  |  |  |
| CC[C@H](C)[C@H](NC(=O)[C@H](CCCNC(=N)N)NC(=O)[C@H](C)NC(=O)[C@H](CCCNC(=N)N)NC(=O)[C@H](CO)NC(=O)[C@@H](N)C(C)C)C(=O)N[C@@H](CC(=O)O)C(=O)N[C@@H](C)C(=O)N[C@@H](CCCNC(=N)N)C(=O)N[C@H](C(=O)N[C@@H](CC(=O)O)C(=O)N[C@@H](Cc1ccccc1)C(=O)N[C@@H](CCC(=O)O)C(=O)N[C@@H](CO)C(=O)NCC(=O)O)[C@@H](C)CC [Flu.PB1.722] |  |  | 3010 nM |  |  |  |  |  |  |
| CSCC[C@H](NC(=O)[C@H](CO)NC(=O)[C@@H](NC(=O)[C@H](Cc1ccccc1)NC(=O)[C@H](CC(N)=O)NC(=O)[C@@H](N)C(C)C)C(C)C)C(=O)N[C@@H](CCC(=O)O)C(=O)N[C@@H](Cc1ccccc1)C(=O)N[C@@H](CO)C(=O)N[C@@H](CC(C)C)C(=O)N[C@H](C(=O)N[C@@H](CC(=O)O)C(=O)N1CCC[C@H]1C(=O)N[C@@H](CCCNC(=N)N)C(=O)N[C@@H](CC(C)C)C(=O)O)[C@@H](C)O [Flu.PA.521] |  |  | 7700 nM |  |  |  |  |  |  |
| ALQLLFEVEQEIRTF [Flu.NS2.178] |  |  | 8870 nM |  | 2150 nM | 3490 nM |  |  |  |
| LILYDKEEIRRIWRQ [Flu.NP.111] | 3100 nM |  | 7500 nM | 22 nM | 262 nM | 7180 nM |  |  |  |
| CC[C@H](C)[C@H](NC(=O)[C@H](CCSC)NC(=O)[C@H](CS)NC(=O)[C@H](CC(=O)O)NC(=O)[C@H](CCC(=O)O)NC(=O)[C@H](CCC(N)=O)NC(=O)[C@H](CO)NC(=O)[C@H](Cc1ccccc1)NC(=O)[C@@H](NC(=O)[C@H](CCSC)NC(=O)[C@H](C)N)C(C)C)C(=O)N[C@@H](CCCCN)C(=O)N[C@@H](C)C(=O)N[C@H](C(=O)N[C@@H](CCCNC(=N)N)C(=O)O)C(C)C [Flu.PB2.404] | 9200 nM | 3280 nM | 6780 nM | 718 nM | 336 nM | 11000 nM |  |  |  |
